The source of these data is US7595401B2, “Therapeutic compounds and their use in cancer” (Myriad Pharmaceuticals, Inc., priority 2006, dated 2009).

A value given as a limit tells only on which side of the number the result lay.

For the first assay, the system named is purified human Hsp90. In words: Binding Assay: fluorescence polarization with BODIPY-labeled geldanamycin. The settings on record: 5 μM compound, BODIPY-GM 10 nM, Hsp90 30 nM. The procedure, abridged:
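Fluorescence polarization competition with BODIPY-geldanamycin (10 nM final) and human Hsp90 (30 nM final) in HEPES-KOH pH 7.3 buffer with molybdate, NP-40, DTT; 2% DMSO, overnight at room temperature. Read 485/530 nm; percent inhibition from mP normalized to DMSO controls, fluorescent-compound points excluded.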
On the technique in general: Fluorescence polarisation rises when a labelled molecule tumbles more slowly, as on binding a larger partner.
The term % Inhibition denotes the percentage by which the read-out fell short of the control. A lower % Inhibition goes with little suppression. For `Nc1ncn(CCC2CCN(C(=O)C3CC3(F)F)CC2)c2nc(Sc3cc4c(cc3Br)OCO4)nc1-2` (stereo not drawn) [Example 525, 8-[(6-Bromo-1,3-benzodioxol-5-yl)thio]-3-(2-{1-[(2,2-difluorocyclopropyl)carbonyl]piperidin-4-yl}ethyl)-3 H-purin-6-amine], the “% Inhibition at 5 μM Compound Concentration” value (from here on “% Inhibition”) is 13.00%.

Consider `Nc1ncn(CCC2CCN(C(=O)C3(C(F)(F)F)CC3)CC2)c2nc(Sc3cc4c(cc3Br)OCO4)nc1-2` [Example 527], for which the “% Inhibition” value is recorded as 19.00%.

Take `Cc1cc(=O)oc2cc(Sc3nc4c(N)ncn(CCC5CCN(C=O)CC5)c-4n3)ccc12` [Example 533, 4-(2-{6-Amino-8-[(4-methyl-2-oxo-2 H-chromen-7-yl)thio]-3 H-purin-3-yl}ethyl)piperidine-1-carbaldehyde]: the “% Inhibition” value is reported as 0.00%.

Regarding `COc1cc(Sc2nc3c(N)ncn(CCC4CCN(C=O)CC4)c-3n2)c2ocnc2c1` [Example 535, 4-(2-{6-Amino-8-[(5-methoxy-1,3-benzoxazol-7-yl)thio]-3 H-purin-3-yl}ethyl)piperidine-1-carbaldehyde], the “% Inhibition” value was 1.00%.

For `COc1cc(Sc2nc3c(N)nc[n+](CCC4CCN(C=O)CC4)c3[nH]2)cc(OC)c1OC` [Example 541, 4-(2-{6-Amino-8-[(3,4,5-trimethoxyphenyl)thio]-3 H-purin-3-yl}ethyl)piperidine-1-carbaldehyde], the “% Inhibition” value came to 4.00%.

In the case of `COC(=O)c1ccnc(Sc2nc3c(N)ncn(CCC4CCN(C=O)CC4)c-3n2)c1` [Example 543, Methyl 2-({6-amino-3-[2-(1-formylpiperidin-4-yl)ethyl]-3 H-purin-8-yl}thio)isonicotinate], the “% Inhibition” value worked out at 0.00%.

For the compound `Cc1ccsc1Sc1nc2c(N)ncn(CCC3CCN(C=O)CC3)c-2n1` [Example 547, 4-(2-{6-Amino-8-[(3-methyl-2-thienyl)thio]-3 H-purin-3-yl}ethyl)piperidine-1-carbaldehyde], the “% Inhibition” value was determined as 12.00%.

The same assay, now with this note: BODIPY-GM 10 nM, Hsp90 30 nM.
As usually defined, the IC50 is the concentration that gives 50% inhibition. A high value points to a need for much substance. Turning to `COC(=O)CCCNC(=O)N1CCCC(CCn2c(Sc3cc4c(cc3Br)OCO4)nc3c(N)ncnc32)C1` (stereo not drawn) [Example 503, Methyl 4-({[3-(2-{6-amino-8-[(6-bromo-1,3-benzodioxol-5-yl)thio]-9 H-purin-9-yl}ethyl)piperidin-1-yl]carbonyl}amino)butanoate], the IC50 is 0.19 µM.

`COC(=O)[C@H](CCSC)NC(=O)N1CCC(CCn2c(Sc3cc4c(cc3Br)OCO4)nc3c(N)ncnc32)CC1` [Example 505, Methyl N-{[4-(2-{6-amino-8-[(6-bromo-1,3-benzodioxol-5-yl)thio]-9 H-purin-9-yl}ethyl)piperidin-1-yl]carbonyl}-L-methioninate]: the IC50 amounted to 0.085 µM.

As to `COC(=O)[C@H](CCSC)NC(=O)N1CCCC(CCn2c(Sc3cc4c(cc3Br)OCO4)nc3c(N)ncnc32)C1` (stereo partly drawn) [Example 507, Methyl N-{[3-(2-{6-amino-8-[(6-bromo-1,3-benzodioxol-5-yl)thio]-9 H-purin-9-yl}ethyl)piperidin-1-yl]carbonyl}-L-methioninate], the concentration for half-maximal inhibition (IC50) turned out to be 0.405 µM.

On to `Nc1ncnc2c1nc(Sc1cc3c(cc1Br)OCO3)n2CCC1CCN(C(=O)C2CCCC2)CC1` [Example 510, 8-[(6-Bromo-1,3-benzodioxol-5-yl)thio]-9-{2-[1-(cyclopentylcarbonyl)piperidin-4-yl]ethyl}-9 H-purin-6-amine], for which the half-inhibitory concentration (IC50) was determined as 0.25 µM.

`Nc1ncnc2c1nc(Sc1cc3c(cc1Br)OCO3)n2CCC1CCN(C(=O)C2CCC2)CC1` [Example 512, 8-[(6-Bromo-1,3-benzodioxol-5-yl)thio]-9-{2-[1-(cyclobutylcarbonyl)piperidin-4-yl]ethyl}-9 H-purin-6-amine] came in with a 50% inhibitory concentration (IC50) of 0.11 µM. Against the preceding compound, the IC50 is about 2.3-fold lower.

Regarding `Nc1ncnc2c1nc(Sc1cc3c(cc1Br)OCO3)n2CCC1CCN(C(=O)C2CC2)CC1` [Example 514, 8-[(6-Bromo-1,3-benzodioxol-5-yl)thio]-9-{2-[1-(cyclopropylcarbonyl)piperidin-4-yl]ethyl}-9 H-purin-6-amine], the IC50 was 0.11 µM. That is a sub-micromolar value.

In the case of `CC1(C(=O)N2CCC(CCn3c(Sc4cc5c(cc4Br)OCO5)nc4c(N)ncnc43)CC2)CC1` [Example 516, 8-[(6-Bromo-1,3-benzodioxol-5-yl)thio]-9-(2-{1-[(1-methylcyclopropyl)carbonyl]piperidin-4-yl}ethyl)-9 H-purin-6-amine], the 50% inhibitory concentration (IC50) was 0.6 µM.

`CC1CC1C(=O)N1CCC(CCn2c(Sc3cc4c(cc3Br)OCO4)nc3c(N)ncnc32)CC1` (stereo not drawn) [Example 518, 8-[(6-Bromo-1,3-benzodioxol-5-yl)thio]-9-(2-{1-[(2-methylcyclopropyl)carbonyl]piperidin-4-yl}ethyl)-9 H-purin-6-amine] displayed an IC50 of 0.14 µM. Against the preceding compound, the IC50 is about 4.3-fold lower.

In the case of `CC1(C)C(C(=O)N2CCC(CCn3c(Sc4cc5c(cc4Br)OCO5)nc4c(N)ncnc43)CC2)C1(C)C` [Example 520, 8-[(6-Bromo-1,3-benzodioxol-5-yl)thio]-9-(2-{1-[(2,2,3,3-tetramethylcyclopropyl)carbonyl]piperidin-4-yl}ethyl)-9 H-purin-6-amine], the 50% inhibitory concentration (IC50) is above 2 µM.

For `Nc1ncnc2c1nc(Sc1cc3c(cc1Br)OCO3)n2CCC1CCN(C(=O)[C@H]2C[C@@H]2F)CC1` [Example 522, 8-[(6-Bromo-1,3-benzodioxol-5-yl)thio]-9-[2-(1-{[(2S)-2-fluorocyclopropyl]carbonyl}piperidin-4-yl)ethyl]-9 H-purin-6-amine], the IC50 amounted to 0.053 µM.

In turn, `Nc1ncnc2c1nc(Sc1cc3c(cc1Br)OCO3)n2CCC1CCN(C(=O)C2CC2(F)F)CC1` (stereo not drawn) [Example 524, 8-[(6-Bromo-1,3-benzodioxol-5-yl)thio]-9-(2-{1-[(2,2-difluorocyclopropyl)carbonyl]piperidin-4-yl}ethyl)-9 H-purin-6-amine] gave a concentration for half-maximal inhibition (IC50) of 0.1 µM.

Regarding `Nc1ncnc2c1nc(Sc1cc3c(cc1Br)OCO3)n2CCC1CCN(C(=O)C2(C(F)(F)F)CC2)CC1` [Example 526, 8-[(6-Bromo-1,3-benzodioxol-5-yl)thio]-9-[2-(1-{[1-(trifluoromethyl)cyclopropyl]carbonyl}piperidin-4-yl)ethyl]-9 H-purin-6-amine], the concentration for half-maximal inhibition (IC50) is 0.3 µM.

The compound `CC(=O)N1CCC(CCn2c(Sc3ccc4c(c3)CCO4)nc3c(N)ncnc32)CC1` [Example 528, 9-[2-(1-Acetylpiperidin-4-yl)ethyl]-8-(2,3-dihydro-1-benzofuran-5-ylthio)-9 H-purin-6-amine] registered a half-maximal inhibitory concentration (IC50) above 5 µM.

`CC(=O)N1CCC(CCn2c(Sc3cc(Br)c4c(c3)CCO4)nc3c(N)ncnc32)CC1` [Example 530, 9-[2-(1-Acetylpiperidin-4-yl)ethyl]-8-[(7-bromo-2,3-dihydro-1-benzofuran-5-yl)thio]-9 H-purin-6-amine] displayed an IC50 of 2.5 µM.

`Cc1cc(=O)oc2cc(Sc3nc4c(N)ncnc4n3CCC3CCN(C=O)CC3)ccc12` [Example 532, 4-(2-{6-Amino-8-[(4-methyl-2-oxo-2 H-chromen-7-yl)thio]-9 H-purin-9-yl}ethyl)piperidine-1-carbaldehyde] registered an IC50 of 5 µM.

`COc1cc(Sc2nc3c(N)ncnc3n2CCC2CCN(C=O)CC2)c2ocnc2c1` [Example 534, 4-(2-{6-Amino-8-[(5-methoxy-1,3-benzoxazol-7-yl)thio]-9 H-purin-9-yl}ethyl)piperidine-1-carbaldehyde]: the half-inhibitory concentration (IC50) was found to be 5 µM.

For `COc1ccc([N+](=O)[O-])cc1Sc1nc2c(N)ncnc2n1CCC1CCN(C=O)CC1` [Example 536, 4-(2-{6-Amino-8-[(2-methoxy-5-nitrophenyl)thio]-9 H-purin-9-yl}ethyl)piperidine-1-carbaldehyde], the IC50 was above 5 µM.

The compound `COc1ccc([N+](=O)[O-])cc1Sc1nc2c(N)ncn(CCC3CCN(C=O)CC3)c-2n1` [Example 537, 4-(2-{6-Amino-8-[(2-methoxy-5-nitrophenyl)thio]-3 H-purin-3-yl}ethyl)piperidine-1-carbaldehyde] registered an IC50 above 5 µM.

Compound `COc1ccnc(Sc2nc3c(N)ncnc3n2CCC2CCN(C=O)CC2)c1` [Example 538, 4-(2-{6-Amino-8-[(4-methoxypyridin-2-yl)thio]-9 H-purin-9-yl}ethyl)piperidine-1-carbaldehyde] returned an IC50 of 1.6 µM.

For `Nc1ncnc2c1nc(Sc1ccc3occc3c1)n2CCC1CCN(C=O)CC1` [Example 539, 4-{2-[6-Amino-8-(1-benzofuran-5-ylthio)-9 H-purin-9-yl]ethyl}piperidine-1-carbaldehyde], the IC50 is above 5 µM.

For the compound `COc1cc(Sc2nc3c(N)ncnc3n2CCC2CCN(C=O)CC2)cc(OC)c1OC` [Example 540, 4-(2-{6-Amino-8-[(3,4,5-trimethoxyphenyl)thio]-9 H-purin-9-yl}ethyl)piperidine-1-carbaldehyde], the concentration for half-maximal inhibition (IC50) is above 5 µM.

`COC(=O)c1ccnc(Sc2nc3c(N)ncnc3n2CCC2CCN(C=O)CC2)c1` [Example 542, Methyl 2-({6-amino-9-[2-(1-formylpiperidin-4-yl)ethyl]-9 H-purin-8-yl}thio)isonicotinate]: the IC50 was above 5 µM.

`COc1cc(Sc2nc3c(N)ncnc3n2CCC2CCN(C=O)CC2)ncn1` [Example 544, 4-(2-{6-Amino-8-[(6-methoxypyrimidin-4-yl)thio]-9 H-purin-9-yl}ethyl)piperidine-1-carbaldehyde] had an IC50 of 1.4 µM.

`Nc1ncnc2c1nc(Sc1cc3c(cc1Br)OCCO3)n2CCC1CCN(C=O)CC1` [Example 545, 4-(2-{6-Amino-8-[(7-bromo-2,3-dihydro-1,4-benzodioxin-6-yl)thio]-9 H-purin-9-yl}ethyl)piperidine-1-carbaldehyde] gave an IC50 of 0.05 µM. This IC50 lies about 28-fold lower than the previous one.

On to `Cc1ccsc1Sc1nc2c(N)ncnc2n1CCC1CCN(C=O)CC1` [Example 546, 4-(2-{6-Amino-8-[(3-methyl-2-thienyl)thio]-9 H-purin-9-yl}ethyl)piperidine-1-carbaldehyde], for which the half-inhibitory concentration (IC50) is above 5 µM.

In turn, `CC(=O)Nc1ccc(Sc2nc3c(N)ncnc3n2CCC2CCN(C=O)CC2)c(Cl)c1` [Example 548, N-[4-({6-Amino-9-[2-(1-formylpiperidin-4-yl)ethyl]-9 H-purin-8-yl}thio)-3-chlorophenyl]acetamide] gave a half-maximal inhibitory concentration (IC50) above 5 µM.
